According to patent US20260070945A1, “MACROCYCLIC IMMUNOMODULATORS” (Bristol-Myers Squibb Company, priority 2022, published 2026):
Where a SMILES comes first, the peptide text is derived from it. Bridges are numbered along the chain shown (N, C = ends). [ ]: non-standard residue; d: D form. The star is where a group is joined. X7 = NC[C@H](NC(=O)CNCCNCCN*)C(=O)NCCCCCCCCCCC(=O)O; Phe(4-COOH) = N[C@@H](Cc1ccc(C(=O)O)cc1)C(=O)O; Bip = N[C@@H](Cc1ccc(-c2ccccc2)cc1)C(=O)O; Phe(3-Me) = Cc1cccc(C[C@H](N)C(=O)O)c1; Cha = N[C@@H](CC1CCCCC1)C(=O)O; Carboxymethyl = O=C(O)C*; NMeA = CN[C@@H](C)C(=O)O; Orn = NCCC[C@H](N)C(=O)O; Aun = NCCCCCCCCCCC(=O)O; Dab = NCC[C@H](N)C(=O)O; Dap = NC[C@H](N)C(=O)O

These molecules were tested against T1, PD-1/PD-L1 interaction (PE-labeled human PD-L1-Ig binding to Jurkat cell line over-expressing human PD-1) (Homo sapiens, UniProt Q15116) (assay: Jurkat-PD-1 Cell Binding High-Content Screening Assay (CBA)). Conditions: Jurkat-hPD-1 cells, PE-labeled PD-L1-Ig 20 nM final; read-out: Jurkat HPD1 PDL1 IC50.
T1 construct: expressed in transfected cells; host or cells: Jurkat
T1 sequence (Q15116 25-288): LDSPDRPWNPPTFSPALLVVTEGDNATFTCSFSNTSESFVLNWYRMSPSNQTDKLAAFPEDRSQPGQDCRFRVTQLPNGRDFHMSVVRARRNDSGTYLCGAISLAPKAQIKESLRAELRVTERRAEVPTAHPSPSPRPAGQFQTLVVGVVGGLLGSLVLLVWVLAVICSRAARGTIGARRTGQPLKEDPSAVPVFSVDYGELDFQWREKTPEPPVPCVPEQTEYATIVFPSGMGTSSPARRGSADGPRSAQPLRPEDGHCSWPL
Description: Example 2: Jurkat-PD-1 Cell Binding High-Content Screening Assay (CBA)
Phycoerythrin (PE) was covalently linked to the Ig epitope tag of human PD-L1-Ig and fluorescently-labeled PD-L1-Ig was used for binding studies with a Jurkat cell line over-expressing human PD-1 (Jurkat-PD-1). Briefly, 8×10^3 Jurkat-hPD-1 cells were seeded into 384 well plates in 20 μl of DMEM supplemented with 10% fetal calf serum. 100 nl of compound was added to cells followed by incubation at 37° C. for 2 hours. Then, 5 μl of PE-labeled PD-L1-Ig (20 nM final), diluted in DMEM supplemented with 10% fetal calf serum. After 1 hour incubation, cells were fixed with […] in dPBS containing 10 μg/ml Hoechst 33342 and then washed 3× in 100 μl dPBS. Data was collected and processed using a Cell Insight NXT High Content Imager and associated software.
In the case of `CC(C)C[C@@H]1NC(=O)[C@H](Cc2c[nH]c3ccccc23)NC(=O)[C@H](CC(=O)O)NC(=O)[C@H](Cc2ccc(C(=O)O)cc2)NC(=O)[C@H](Cc2ccc(OCC(=O)O)cc2)NC(=O)CSC[C@@H](C(=O)NCC(=O)N[C@@H](CCC(=O)O)C(=O)NCC(=O)NCCCCCCCCCCC(=O)O)NC(=O)[C@H](CO)NC(=O)[C@H](C(C)C)NC(=O)[C@H](CC2CCCCC2)NC(=O)[C@H](CCN)NC(=O)[C@@H](CC(C)C)NC(=O)[C@H](C)N(C)C(=O)[C@H](C(C)C)NC(=O)[C@H](Cc2ccc(-c3ccccc3)cc2)NC1=O` [Example 1032] ({CH2CO}-Y(Carboxymethyl)[Phe(4-COOH)]DWL[Bip]V[NMeA][dL][Dab][Cha]VSCGEG[Aun]-OH; thioether N-14), the IC50 is reported as 15.9 nM.
Work on `CC(C)C[C@@H]1NC(=O)[C@H](Cc2c[nH]c3ccccc23)NC(=O)[C@H](CC(=O)O)NC(=O)[C@H](Cc2ccc(C(=O)O)cc2)NC(=O)[C@H](Cc2ccc(OCC(=O)O)cc2)NC(=O)CSC[C@@H](C(=O)NCC(=O)N[C@@H](CC(=O)O)C(=O)NCC(=O)NCCCCCCCCCCC(=O)O)NC(=O)[C@H](CO)NC(=O)[C@H](C(C)C)NC(=O)[C@H](CC2CCCCC2)NC(=O)[C@H](CCN)NC(=O)[C@@H](CC(C)C)NC(=O)[C@H](C)N(C)C(=O)[C@H](C(C)C)NC(=O)[C@H](Cc2ccc(-c3ccccc3)cc2)NC1=O` [Example 1033] ({CH2CO}-Y(Carboxymethyl)[Phe(4-COOH)]DWL[Bip]V[NMeA][dL][Dab][Cha]VSCGDG[Aun]-OH; thioether N-14) yielded an IC50 of 20.5 nM.
Molecule `CC(C)C[C@@H]1NC(=O)[C@H](Cc2c[nH]c3ccccc23)NC(=O)[C@H](CC(=O)O)NC(=O)[C@H](Cc2ccc(C(=O)O)cc2)NC(=O)[C@H](Cc2ccc(OCC(=O)O)cc2)NC(=O)CSC[C@@H](C(=O)N[C@@H](CCC(=O)O)C(=O)NCC(=O)NCCCCCCCCCCC(=O)O)NC(=O)[C@H](CO)NC(=O)[C@H](C(C)C)NC(=O)[C@H](CC2CCCCC2)NC(=O)[C@H](CCN)NC(=O)[C@@H](CC(C)C)NC(=O)[C@H](C)N(C)C(=O)[C@H](C(C)C)NC(=O)[C@H](Cc2ccc(-c3ccccc3)cc2)NC1=O` [Example 1035] ({CH2CO}-Y(Carboxymethyl)[Phe(4-COOH)]DWL[Bip]V[NMeA][dL][Dab][Cha]VSCEG[Aun]-OH; thioether N-14) has an IC50 of 19.4 nM.
Work on `CC(C)C[C@@H]1NC(=O)[C@H](Cc2c[nH]c3ccccc23)NC(=O)[C@H](CC(=O)O)NC(=O)[C@H](Cc2ccc(C(=O)O)cc2)NC(=O)[C@H](Cc2ccc(OCC(=O)O)cc2)NC(=O)CSC[C@@H](C(=O)NCC(=O)N[C@@H](CN)C(=O)NCCCCCCCCCCC(=O)O)NC(=O)[C@H](CO)NC(=O)[C@H](C(C)C)NC(=O)[C@H](CC2CCCCC2)NC(=O)[C@H](CCN)NC(=O)[C@@H](CC(C)C)NC(=O)[C@H](C)N(C)C(=O)[C@H](C(C)C)NC(=O)[C@H](Cc2ccc(-c3ccccc3)cc2)NC1=O` [Example 1036] ({CH2CO}-Y(Carboxymethyl)[Phe(4-COOH)]DWL[Bip]V[NMeA][dL][Dab][Cha]VSCG[Dap][Aun]-OH; thioether N-14) yielded an IC50 of 11.5 nM.
`CC(C)C[C@@H]1NC(=O)[C@H](Cc2c[nH]c3ccccc23)NC(=O)[C@H](CC(=O)O)NC(=O)[C@H](Cc2ccc(C(=O)O)cc2)NC(=O)[C@H](Cc2ccc(OCC(=O)O)cc2)NC(=O)CSC[C@@H](C(=O)NCC(=O)N[C@@H](CCN)C(=O)NCCCCCCCCCCC(=O)O)NC(=O)[C@H](CO)NC(=O)[C@H](C(C)C)NC(=O)[C@H](CC2CCCCC2)NC(=O)[C@H](CCN)NC(=O)[C@H](CC(C)C)NC(=O)[C@H](C)N(C)C(=O)[C@H](C(C)C)NC(=O)[C@H](Cc2ccc(-c3ccccc3)cc2)NC1=O` [Example 1037] ({CH2CO}-Y(Carboxymethyl)[Phe(4-COOH)]DWL[Bip]V[NMeA]L[Dab][Cha]VSCG[Dab][Aun]-OH; thioether N-14) gave an IC50 of 13.6 nM.
`CC(C)C[C@@H]1NC(=O)[C@H](Cc2c[nH]c3ccccc23)NC(=O)[C@H](CC(=O)O)NC(=O)[C@H](Cc2ccc(C(=O)O)cc2)NC(=O)[C@H](Cc2ccc(OCC(=O)O)cc2)NC(=O)CSC[C@@H](C(=O)NCC(=O)N[C@@H](CCCN)C(=O)NCCCCCCCCCCC(=O)O)NC(=O)[C@H](CO)NC(=O)[C@H](C(C)C)NC(=O)[C@H](CC2CCCCC2)NC(=O)[C@H](CCN)NC(=O)[C@H](CC(C)C)NC(=O)[C@H](C)N(C)C(=O)[C@H](C(C)C)NC(=O)[C@H](Cc2ccc(-c3ccccc3)cc2)NC1=O` [Example 1038] ({CH2CO}-Y(Carboxymethyl)[Phe(4-COOH)]DWL[Bip]V[NMeA]L[Dab][Cha]VSCG[Orn][Aun]-OH; thioether N-14) gave an IC50 of 13.2 nM.
`CC(C)C[C@@H]1NC(=O)[C@H](Cc2c[nH]c3ccccc23)NC(=O)[C@H](CC(=O)O)NC(=O)[C@H](Cc2ccc(C(=O)O)cc2)NC(=O)[C@H](Cc2ccc(OCC(=O)O)cc2)NC(=O)CSC[C@@H](C(=O)NCC(=O)N[C@@H](CCCCN)C(=O)NCCCCCCCCCCC(=O)O)NC(=O)[C@H](CO)NC(=O)[C@H](C(C)C)NC(=O)[C@H](CC2CCCCC2)NC(=O)[C@H](CCN)NC(=O)[C@@H](CC(C)C)NC(=O)[C@H](C)N(C)C(=O)[C@H](C(C)C)NC(=O)[C@H](Cc2ccc(-c3ccccc3)cc2)NC1=O` [Example 1039] ({CH2CO}-Y(Carboxymethyl)[Phe(4-COOH)]DWL[Bip]V[NMeA][dL][Dab][Cha]VSCGK[Aun]-OH; thioether N-14) showed an IC50 of 12.8 nM.
`CC(C)C[C@@H]1NC(=O)[C@H](Cc2c[nH]c3ccccc23)NC(=O)[C@H](CC(=O)O)NC(=O)[C@H](Cc2ccc(C(=O)O)cc2)NC(=O)[C@H](Cc2ccc(OCC(=O)O)cc2)NC(=O)CSC[C@@H](C(=O)NCC(=O)N[C@@H](CCC(=O)O)C(=O)NCCCCCCCCCCC(=O)O)NC(=O)[C@H](CO)NC(=O)[C@H](C(C)C)NC(=O)[C@H](CC2CCCCC2)NC(=O)[C@H](CCN)NC(=O)[C@@H](CC(C)C)NC(=O)[C@H](C)N(C)C(=O)[C@H](C(C)C)NC(=O)[C@H](Cc2ccc(-c3ccccc3)cc2)NC1=O` [Example 1040] ({CH2CO}-Y(Carboxymethyl)[Phe(4-COOH)]DWL[Bip]V[NMeA][dL][Dab][Cha]VSCGE[Aun]-OH; thioether N-14) gave an IC50 of 14 nM.
`CC(C)C[C@@H]1NC(=O)[C@H](Cc2c[nH]c3ccccc23)NC(=O)[C@H](CC(=O)O)NC(=O)[C@H](Cc2ccc(C(=O)O)cc2)NC(=O)[C@H](Cc2ccc(OCC(=O)O)cc2)NC(=O)CSC[C@@H](C(=O)NCC(=O)N[C@@H](CC(=O)O)C(=O)NCCCCCCCCCCC(=O)O)NC(=O)[C@H](CO)NC(=O)[C@H](C(C)C)NC(=O)[C@H](CC2CCCCC2)NC(=O)[C@H](CCN)NC(=O)[C@@H](CC(C)C)NC(=O)[C@H](C)N(C)C(=O)[C@H](C(C)C)NC(=O)[C@H](Cc2ccc(-c3ccccc3)cc2)NC1=O` [Example 1041] ({CH2CO}-Y(Carboxymethyl)[Phe(4-COOH)]DWL[Bip]V[NMeA][dL][Dab][Cha]VSCGD[Aun]-OH; thioether N-14) was tested, and the IC50 was 13.8 nM.
Molecule `Cc1cccc(C[C@@H]2NC(=O)[C@H](CC(=O)O)NC(=O)[C@H](Cc3ccc(OCC(=O)O)cc3)NC(=O)[C@H](CN)NC(=O)CSC[C@@H](C(=O)NCC(=O)N[C@@H](CN)C(=O)NCC(=O)NCCCCCCCCCCC(=O)O)NC(=O)[C@H](CO)NC(=O)[C@H](C(C)C)NC(=O)[C@H](CC(C)C)NC(=O)[C@H](CC(N)=O)NC(=O)[C@@H](CC(C)C)NC(=O)[C@H](C)N(C)C(=O)[C@H](C(C)C)NC(=O)[C@H](Cc3ccc(-c4ccccc4)cc3)NC(=O)[C@H](CC(C)C)NC2=O)c1` [Example 1052] ({CH2CO}-[Dap]Y(Carboxymethyl)D[Phe(3-Me)]L[Bip]V[NMeA][dL]NLVSCG[Dap]G[Aun]-OH; thioether N-14) has an IC50 of 18.4 nM.
With `Cc1cccc(C[C@@H]2NC(=O)[C@H](CC(=O)O)NC(=O)[C@H](Cc3ccc(OCC(=O)O)cc3)NC(=O)[C@H](CN)NC(=O)CSC[C@@H](C(=O)NCC(=O)N[C@@H](CCC(=O)O)C(=O)NCCCCCCCCCCC(=O)O)NC(=O)[C@H](CO)NC(=O)[C@H](C(C)C)NC(=O)[C@H](CC(C)C)NC(=O)[C@H](CC(N)=O)NC(=O)[C@@H](CC(C)C)NC(=O)[C@H](C)N(C)C(=O)[C@H](C(C)C)NC(=O)[C@H](Cc3ccc(-c4ccccc4)cc3)NC(=O)[C@H](CC(C)C)NC2=O)c1` [Example 1060] ({CH2CO}-[Dap]Y(Carboxymethyl)D[Phe(3-Me)]L[Bip]V[NMeA][dL]NLVSCGE[Aun]-OH; thioether N-14) the IC50 was 47.9 nM.
Work on `Cc1cccc(C[C@@H]2NC(=O)[C@H](CC(=O)O)NC(=O)[C@H](Cc3ccc(OCC(=O)O)cc3)NC(=O)[C@H](CN)NC(=O)CSC[C@@H](C(=O)NCC(=O)N[C@@H](CC(=O)O)C(=O)NCCCCCCCCCCC(=O)O)NC(=O)[C@H](CO)NC(=O)[C@H](C(C)C)NC(=O)[C@H](CC(C)C)NC(=O)[C@H](CC(N)=O)NC(=O)[C@@H](CC(C)C)NC(=O)[C@H](C)N(C)C(=O)[C@H](C(C)C)NC(=O)[C@H](Cc3ccc(-c4ccccc4)cc3)NC(=O)[C@H](CC(C)C)NC2=O)c1` [Example 1061] ({CH2CO}-[Dap]Y(Carboxymethyl)D[Phe(3-Me)]L[Bip]V[NMeA][dL]NLVSCGD[Aun]-OH; thioether N-14) yielded an IC50 of 42.9 nM.
In the case of `Cc1cccc(C[C@@H]2NC(=O)[C@H](CC(=O)O)NC(=O)[C@H](Cc3ccc(OCC(=O)O)cc3)NC(=O)[C@H](CN)NC(=O)CSC[C@@H](C(=O)NCCNCCNCC(=O)N[C@@H](CN)C(=O)NCCCCCCCCCCC(=O)O)NC(=O)[C@H](CO)NC(=O)[C@H](C(C)C)NC(=O)[C@H](CC(C)C)NC(=O)[C@H](CC(N)=O)NC(=O)[C@@H](CC(C)C)NC(=O)[C@H](C)N(C)C(=O)[C@H](C(C)C)NC(=O)[C@H](Cc3ccc(-c4ccccc4)cc3)NC(=O)[C@H](CC(C)C)NC2=O)c1` [Example 1062] ({CH2CO}-[Dap]Y(Carboxymethyl)D[Phe(3-Me)]L[Bip]V[NMeA][dL]NLVSC-X7; thioether N-14), the IC50 is reported as 26.9 nM.
